The source of these data is patent US20230278995A1, “1,3,4-OXADIAZOLE DERIVATIVE COMPOUNDS AS HISTONE DEACETYLASE 6 INHIBITOR, AND THE PHARMACEUTICAL COMPOSITION COMPRISING THE SAME” (CHONG KUN DANG PHARMACEUTICAL CORP., priority 2020, published 2023).

One experiment addresses T1, human recombinant HDAC1 (Homo sapiens, UniProt Q13547).
T1 construct: purchased Enzo Life Sciences, Inc. BML-SE456
The experiment can be described thus: HDAC enzyme activity inhibition assay (HDAC Fluorimetric Drug Discovery Kit), HDAC1. As to conditions: human recombinant HDAC1, Fluor de Lys-SIRT1 substrate, 30° C. 60 minutes. Format: biochemical. A digest of the protocol: (§1)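 Recombinant human HDAC1 or HDAC6 (0.3 μg) reacted with 10 μM Fluor de Lys-SIRT1 substrate at 30 °C for 60 min. Developer added for 30 min, then fluorescence read at Ex 360/Em 460.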

A further experiment has as its target T2, human recombinant HDAC6 (Homo sapiens, UniProt Q9UBN7).
T2 construct: purchased Calbiochem Inc. 382180
T2 sequence (Q9UBN7 1-1215): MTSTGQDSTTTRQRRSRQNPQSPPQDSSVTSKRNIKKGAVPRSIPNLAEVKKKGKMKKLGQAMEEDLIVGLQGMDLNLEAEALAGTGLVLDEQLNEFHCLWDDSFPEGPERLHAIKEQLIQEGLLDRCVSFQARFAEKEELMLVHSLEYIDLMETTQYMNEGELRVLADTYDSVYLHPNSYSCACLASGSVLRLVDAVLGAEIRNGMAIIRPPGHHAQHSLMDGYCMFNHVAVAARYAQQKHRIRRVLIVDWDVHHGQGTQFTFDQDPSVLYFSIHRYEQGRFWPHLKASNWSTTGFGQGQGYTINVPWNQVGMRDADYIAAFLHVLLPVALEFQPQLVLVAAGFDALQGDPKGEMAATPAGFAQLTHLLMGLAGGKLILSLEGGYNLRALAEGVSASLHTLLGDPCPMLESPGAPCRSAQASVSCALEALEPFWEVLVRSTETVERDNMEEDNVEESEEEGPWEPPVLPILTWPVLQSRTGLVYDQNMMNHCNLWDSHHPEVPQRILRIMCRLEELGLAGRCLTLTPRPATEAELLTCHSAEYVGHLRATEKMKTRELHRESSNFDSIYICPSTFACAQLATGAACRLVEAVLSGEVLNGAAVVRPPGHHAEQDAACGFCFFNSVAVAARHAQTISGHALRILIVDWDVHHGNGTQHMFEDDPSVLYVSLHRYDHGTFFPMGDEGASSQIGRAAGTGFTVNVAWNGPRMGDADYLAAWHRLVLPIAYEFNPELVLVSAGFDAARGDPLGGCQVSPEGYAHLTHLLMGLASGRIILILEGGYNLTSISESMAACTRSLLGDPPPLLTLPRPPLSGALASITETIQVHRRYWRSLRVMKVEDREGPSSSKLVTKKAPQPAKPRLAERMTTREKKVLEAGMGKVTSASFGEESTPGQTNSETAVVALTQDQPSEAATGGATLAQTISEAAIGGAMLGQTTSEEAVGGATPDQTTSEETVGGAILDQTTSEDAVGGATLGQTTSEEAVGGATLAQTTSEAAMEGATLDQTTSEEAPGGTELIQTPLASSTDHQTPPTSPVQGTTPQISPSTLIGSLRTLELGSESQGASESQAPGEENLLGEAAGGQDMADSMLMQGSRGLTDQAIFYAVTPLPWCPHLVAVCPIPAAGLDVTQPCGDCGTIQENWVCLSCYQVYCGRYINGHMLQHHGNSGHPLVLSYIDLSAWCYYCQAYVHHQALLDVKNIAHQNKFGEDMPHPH
The experiment can be described thus: HDAC enzyme activity inhibition assay (HDAC Fluorimetric Drug Discovery Kit), HDAC6. The note with it: for HDAC6 selectivity (fold): HDAC1 vs HDAC6; for IC50: human recombinant HDAC6, same protocol as HDAC1. Format: biochemical. A digest of the protocol:
as §1

The structures appear in SMILES notation.

T1 sequence (Q13547 whole entry): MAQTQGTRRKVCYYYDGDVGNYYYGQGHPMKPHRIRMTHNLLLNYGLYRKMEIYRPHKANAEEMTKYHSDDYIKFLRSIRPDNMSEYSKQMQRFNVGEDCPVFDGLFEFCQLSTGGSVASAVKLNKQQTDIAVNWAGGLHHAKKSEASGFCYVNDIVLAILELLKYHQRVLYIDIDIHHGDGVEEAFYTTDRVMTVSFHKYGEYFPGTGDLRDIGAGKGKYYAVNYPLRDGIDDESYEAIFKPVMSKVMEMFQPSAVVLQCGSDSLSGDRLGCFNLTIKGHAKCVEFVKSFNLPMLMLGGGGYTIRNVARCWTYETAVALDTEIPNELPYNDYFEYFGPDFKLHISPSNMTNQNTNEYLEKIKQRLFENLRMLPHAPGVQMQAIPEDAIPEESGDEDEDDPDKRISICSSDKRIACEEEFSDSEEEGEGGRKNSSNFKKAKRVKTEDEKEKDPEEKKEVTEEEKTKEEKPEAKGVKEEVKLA

Regarding `CC(C)N1CC(F)(C(=O)N(Cc2ccc(-c3nnc(C(F)F)o3)cc2F)c2ccccc2)C1` [Compound 3431, N-(4-(5-(difluoromethyl)-1,3,4-oxadiazol-2-yl)-2-fluorobenzyl)-3-fluoro-1-isopropyl-N-phenylazetidine-3-carboxamide], at human recombinant HDAC1, the IC50 (commonly the concentration at which inhibition is half-maximal) was greater than 50 µM. Besides, at human recombinant HDAC6, the “HDAC6 selectivity (fold)” value was found to be 544 fold and the IC50 turned out to be 91.8 nM.

Take `CC(=O)N1CC(F)(C(=O)N(Cc2ccc(-c3nnc(C(F)F)o3)cc2F)c2ccccc2)C1` [Compound 3432, 1-acetyl-N-(4-(5-(difluoromethyl)-1,3,4-oxadiazol-2-yl)-2-fluorobenzyl)-3-fluoro-N-phenylazetidine-3-carboxamide]: the IC50 at human recombinant HDAC1 amounted to 29.1 µM. Further, on human recombinant HDAC6, the “HDAC6 selectivity (fold)” value was 366 fold and the IC50 amounted to 79.5 nM.

Turning to `CCC(=O)N1CC(F)(C(=O)N(Cc2ccc(-c3nnc(C(F)F)o3)cc2F)c2ccccc2)C1` [Compound 3433, N-(4-(5-(difluoromethyl)-1,3,4-oxadiazol-2-yl)-2-fluorobenzyl)-3-fluoro-N-phenyl-1-propionylazetidine-3-carboxamide], on human recombinant HDAC1, the IC50 was 38.5 µM. Besides, at human recombinant HDAC6, the “HDAC6 selectivity (fold)” value is 448 fold and the IC50 was 85.9 nM.

Take `CC(C)C(=O)N1CC(F)(C(=O)N(Cc2ccc(-c3nnc(C(F)F)o3)cc2F)c2ccccc2)C1` [Compound 3434, N-(4-(5-(difluoromethyl)-1,3,4-oxadiazol-2-yl)-2-fluorobenzyl)-3-fluoro-1-isobutyryl N-phenylazetidine-3-carboxamide]: the IC50 on human recombinant HDAC1 is greater than 50 µM. On human recombinant HDAC6, the “HDAC6 selectivity (fold)” value turned out to be 441 fold and the concentration for half-maximal inhibition (IC50) stood at 113 nM.

In the case of `O=C(N1CC(F)(C(=O)N(Cc2ccc(-c3nnc(C(F)F)o3)cc2F)c2ccccc2)C1)C(F)(F)F` [Compound 3435, N-(4-(5-(difluoromethyl)-1,3,4-oxadiazol-2-yl)-2-fluorobenzyl)-3-fluoro-N-phenyl-1-(2,2,2-trifluoroacetyl)azetidine-3-carboxamide], at human recombinant HDAC1, the IC50 was greater than 50 µM. Also, on human recombinant HDAC6, the “HDAC6 selectivity (fold)” value is on record as 325 fold and the IC50 amounted to 154 nM.

On to `CS(=O)(=O)N1CC(F)(C(=O)N(Cc2ccc(-c3nnc(C(F)F)o3)cc2F)c2ccccc2)C1` [Compound 3436, N-(4-(5-(difluoromethyl)-1,3,4-oxadiazol-2-yl)-2-fluorobenzyl)-3-fluoro-1-(methylsulfonyl)-N-phenylazetidine-3-carboxamide], for which the 50% inhibitory concentration (IC50) at human recombinant HDAC1 was greater than 50 µM; at human recombinant HDAC6 it was 132 nM. Besides, at human recombinant HDAC6, the “HDAC6 selectivity (fold)” value was 378 fold.

On to `CC(C)N1CCC(F)(C(=O)N(Cc2ccc(-c3nnc(C(F)F)o3)cc2F)c2ccccc2)CC1` [Compound 3437, N-(4-(5-(difluoromethyl)-1,3,4-oxadiazol-2-yl)-2-fluorobenzyl)-4-fluoro-1-isopropyl-N-phenylpiperidine-4-carboxamide], for which the IC50 on human recombinant HDAC1 was greater than 50 µM. Further, on human recombinant HDAC6, the “HDAC6 selectivity (fold)” value was 226 fold and the IC50 turned out to be 221 nM.

Consider `CC(=O)N1CCC(F)(C(=O)N(Cc2ccc(-c3nnc(C(F)F)o3)cc2F)c2ccccc2)CC1` [Compound 3438, 1-acetyl-N-(4-(5-(difluoromethyl)-1,3,4-oxadiazol-2-yl)-2-fluorobenzyl)-4-fluoro-N-phenylpiperidine-4-carboxamide], for which, on human recombinant HDAC1, the IC50 is greater than 50 µM. Moreover, at human recombinant HDAC6, the “HDAC6 selectivity (fold)” value was 302 fold and the IC50 came to 166 nM.

With `CCC(=O)N1CCC(F)(C(=O)N(Cc2ccc(-c3nnc(C(F)F)o3)cc2F)c2ccccc2)CC1` [Compound 3439, N-(4-(5-(difluoromethyl)-1,3,4-oxadiazol-2-yl)-2-fluorobenzyl)-4-fluoro-N-phenyl-1-propionylpiperidine-4-carboxamide], at human recombinant HDAC1, the IC50 was greater than 50 µM. On human recombinant HDAC6, the “HDAC6 selectivity (fold)” value stood at 238 fold and the IC50 amounted to 210 nM.

As to `CC(C)C(=O)N1CCC(F)(C(=O)N(Cc2ccc(-c3nnc(C(F)F)o3)cc2F)c2ccccc2)CC1` [Compound 3440, N-(4-(5-(difluoromethyl)-1,3,4-oxadiazol-2-yl)-2-fluorobenzyl)-4-fluoro-1-isobutyryl N-phenylpiperidine-4-carboxamide], the IC50 is greater than 50 µM at human recombinant HDAC1 and 280 nM at human recombinant HDAC6. Besides, the “HDAC6 selectivity (fold)” value on human recombinant HDAC6 was 178 fold.

Consider `CS(=O)(=O)N1CCC(F)(C(=O)N(Cc2ccc(-c3nnc(C(F)F)o3)cc2F)c2ccccc2)CC1` [Compound 3442, N-(4-(5-(difluoromethyl)-1,3,4-oxadiazol-2-yl)-2-fluorobenzyl)-4-fluoro-1-(methylsulfonyl)-N-phenylpiperidine-4-carboxamide], for which, on human recombinant HDAC1, the IC50 was greater than 50 µM. In addition, on human recombinant HDAC6, the “HDAC6 selectivity (fold)” value amounted to 154 fold and the IC50 worked out at 324 nM.

As for `CCN1CCC(F)(C(=O)N(Cc2ccc(-c3nnc(C(F)F)o3)cn2)c2cccc(F)c2)CC1` [Compound 3443, N-((5-(5-(difluoromethyl)-1,3,4-oxadiazol-2-yl)pyridin-2-yl)methyl)-1-ethyl-4-fluoro N-(3-fluorophenyl)piperidine-4-carboxamide], on human recombinant HDAC1, the IC50 was greater than 50 µM. On human recombinant HDAC6, the “HDAC6 selectivity (fold)” value turned out to be 967 fold and the IC50 came out at 51.7 nM.

Consider `CC(C)(C)OC(=O)N1CC(F)(C(=O)N(Cc2ccc(-c3nnc(C(F)(F)F)o3)cn2)c2cccc(F)c2)C1` [Compound 6890, tert-butyl 3-fluoro-3-((3-fluorophenyl)((5-(5-(trifluoromethyl)-1,3,4-oxadiazol-2-yl)pyridin-2-yl)methyl)carbamoyl)azetidine-1-carboxylate], for which, at human recombinant HDAC1, the IC50 was greater than 50 µM. For the same compound, at human recombinant HDAC6, the “HDAC6 selectivity (fold)” value is on record as 57 fold and the IC50 amounted to 877 nM.

In the case of `CN1CC(F)(C(=O)N(Cc2ccc(-c3nnc(C(F)(F)F)o3)cn2)c2cccc(F)c2)C1` [Compound 6891, 3-fluoro-N-(3-fluorophenyl)-1-methyl-N-((5-(5-(trifluoromethyl)-1,3,4-oxadiazol-2-yl)pyridin-2-yl)methyl)azetidine-3-carboxamide], the half-maximal inhibitory concentration (IC50) at human recombinant HDAC1 is greater than 50 µM. On human recombinant HDAC6, the “HDAC6 selectivity (fold)” value stood at 196 fold and the IC50 was found to be 254 nM.
